One assay deals with HCV replicon 1a WT. The assay is described as follows: Cell-based HCV replicon assay, genotype 1a WT. The arrangement: species or system Hepatitis C virus. Conditions: replicon cells, day 3, replicon RNA by real time PCR (Taqman). On the procedure:
(§1) To measure cell-based anti-HCV activity of selected compounds of the present invention, replicon cells were seeded at 5000 cells/well in 96-well collagen I-coated Nunc plates in the presence of the test compound. Various concentrations of test compound, typically in 10 serial 2-fold dilutions, were added to the assay mixture, with the starting concentration ranging from 250 μM to 1 μM. The final concentration of DMSO was 0.5%, fetal bovine serum was 5%, in the assay media. Cells were harvested on day 3 by the addition of 1× cell lysis buffer (Ambion cat #8721). The replicon RNA level was measured using real time PCR (Taqman assay). The amplicon was located in 5B. The PCR primers were: 5B.2F, ATGGACAGGCGCCCTGA (SEQ ID NO. 1); 5B.2R, […] (SEQ ID NO. 2); the probe sequence was FAM-labeled CACGCCATGCGCTGCGG (SEQ ID NO. 3). GAPDH RNA was used as endogenous control and was amplified in the same reaction as NS5B (multiplex PCR) using primers and VIC-labeled probe recommended by the manufacturer (PE Applied Biosystem). The real-time RT-PCR reactions were run on ABI PRISM 7900HT Sequence Detection System using the following program: 48° C. for 30 minutes, 95° C. for 10 minutes, 40 cycles of 95° C. for 15 sec, 60° C. for 1 minutes The ΔCT values (CT5B-CTGAPDH) were plotted against the concentration of test compound and fitted to the sigmoid dose-response model using XLfit4 (MDL). EC50 was defined as the concentration of inhibitor necessary to achieve ΔCT=1 over the projected baseline; EC90 the concentration necessary to achieve ΔCT=3.2 over the baseline. Alternatively, to quantitate the absolute amount of replicon RNA, a standard curve was established by including serially diluted T7 transcripts of replicon RNA in the Taqman assay. All Taqman reagents were from PE Applied Biosystems. Such an assay procedure was described in detail in e.g. Malcolm et al., Antimicrobial Agents and Chemotherapy 50: 1013-1020 (2006).
(§2) HCV replicon assay data was calculated for selected compounds of the present invention using this method and is provided in the table below.
On the technique in general: Replicon systems follow genome replication, usually without infectious particles.

Another assay relates to HCV replicon 1a Y93H. As to the kind of experiment: Cell-based HCV replicon assay, genotype 1a Y93H mutant. Conditions: Hepatitis C virus, 72 h, read-out: Replicon EC50 1a Y93H. On the procedure: To measure cell-based anti-HCV activity of selected compounds of the present invention, replicon cells were seeded at 5000 cells/well in 96-well collagen I-coated Nunc plates in the presence of the test compound. Various concentrations of test compound, typically in 10 serial 2-fold dilutions, were added to the assay mixture, with the starting concentration ranging from 250 μM to 1 μM. The final concentration of DMSO was 0.5%, fetal bovine serum was 5%, in the assay media. Cells were harvested on day 3 by the addition of 1× cell lysis buffer (Ambion cat #8721). The replicon RNA level was measured using real time PCR (Taqman assay). The amplicon was located in 5B. The PCR primers were: 5B.2F, ATGGACAGGCGCCCTGA (SEQ ID NO. 1); 5B.2R, […] (SEQ ID NO. 2); the probe sequence was FAM-labeled CACGCCATGCGCTGCGG (SEQ ID NO. 3). GAPDH RNA was used as endogenous control and was amplified in the same reaction as NS5B (multiplex PCR) using primers and VIC-labeled probe recommended by the manufacturer (PE Applied Biosystem). […] Alternatively, to quantitate the absolute amount of replicon RNA, a standard curve was established by including serially diluted T7 transcripts of replicon RNA in the Taqman assay. […]
as §2

A further assay concerns HCV replicon 1b WT. The assay is described as follows: Cell-based HCV replicon assay, genotype 1b WT. The arrangement: species or system Hepatitis C virus. Conditions: replicon cells, day 3, replicon RNA by real time PCR (Taqman). On the procedure:
as §1, §2

What is called EC50 is the concentration that produces a half-maximal response.

In the case of `COC(=O)N[C@H](C(=O)N1CCC[C@H]1c1ncc(-c2ccc3c(c2)OCCc2c-3oc3ccc(-c4cnc([C@@H]5CCCN5C(=O)[C@@H](NC(=O)OC)C(C)C)[nH]4)cc23)[nH]1)C(C)C` [Compound 5], the 50% effective concentration (EC50) with HCV replicon 1a WT (Hepatitis C virus, 72 h) stood at 0.015 nM; with HCV replicon 1a Y93H, 186 nM; in the assay with HCV replicon 1b WT (Hepatitis C virus, 72 h), 0.001 nM.
For `COC(=O)NC(C(=O)N1CCC[C@H]1c1ncc(-c2ccc3c(c2)cc2n3CCOc3cc(-c4cnc(C5CCCN5C(=O)[C@@H](NC(=O)OC)C(C)C)[nH]4)ccc3-2)[nH]1)C(C)C` (some centres unmarked) [Compound 7], in that order: 0.01 nM, 565 nM and 0.003 nM.
For the molecule `COC(=O)NC(C(=O)N1CCC[C@H]1c1ncc(-c2ccc3c(c2)c(F)c2n3CCOc3cc(-c4cnc(C5CCCN5C(=O)[C@@H](NC(=O)OC)C(C)C)[nH]4)ccc3-2)[nH]1)C(C)C` (some centres unmarked) [Compound 8], the EC50 amounted to 0.016 nM in the assay with HCV replicon 1a WT and 0.007 nM with HCV replicon 1b WT.
For `COC(=O)NC(C(=O)N1CCC[C@H]1c1ncc(-c2ccc3c(c2)c(F)c2n3CCOc3cc(-c4cnc(C5CCCN5C(=O)[C@@H](NC(=O)OC)C(C)C)[nH]4)ccc3-2)[nH]1)C(C)C` (some centres unmarked) [Compound 9], in that order: 1.18 nM and 0.27 nM.
As to `COC(=O)NC(C(=O)N1CCC[C@@H]1c1ncc(-c2ccc3c(c2)c(F)c2n3CCOc3cc(-c4cnc(C5CCCN5C(=O)[C@@H](NC(=O)OC)C(C)C)[nH]4)ccc3-2)[nH]1)C(C)C` (some centres unmarked) [Compound 10], the EC50 in the assay with HCV replicon 1a WT amounted to 2 nM; in the assay with HCV replicon 1b WT, 0.7 nM.
As for `COC(=O)NC(C(=O)N1CCC[C@@H]1c1ncc(-c2ccc3c(c2)c(F)c2n3CCOc3cc(-c4cnc(C5CCCN5C(=O)[C@@H](NC(=O)OC)C(C)C)[nH]4)ccc3-2)[nH]1)C(C)C` (some centres unmarked) [Compound 11], the EC50 in the assay on HCV replicon 1a WT worked out at 0.01 nM; in the assay on HCV replicon 1b WT it was 0.005 nM.
